Assays:
TopoIIα = TopoIIα (Homo sapiens, UniProt P11388); assay: In vitro ATP hydrolysis assay (malachite green); assay type: biochemical
Procedure: Efficacy of the ATP-competitive inhibition of TopoIIα inhibitors of the invention are tested in vitro using an ATP hydrolysis assay that quantifies inorganic phosphate through the formation of a high molar absorptivity complex with malachite green and molybdate, adapted for use in 384-well plates, with a total reaction volume of 15 μL. This assay was first utilized to determine the Km of TopoIIα for its natural substrate, ATP, using ATP concentrations ranging from 62.5-1600 μM. To measure the apparent Km, the same reactions were repeated in the presence of 2, 5, or 10 μM neo. Absorbance at 620 nm was measured using a microtiter plate reader. To determine the Ki the same method was used with the following modifications: inhibitors (0.1-10 μM) in reaction buffer (without DNA and DTT) are added to the complete reaction buffer and preincubated for 10 min at 37° C. Reactions were initiated by the addition of 600 μM ATP and incubated for 30 min at 37° C. The IC50 value was determined and the Ki was calculated using the Cheng-Prusoff equation. Experiments were repeated in triplicate and GraphPad Prism software was used to perform non-linear fits (method of least squares) to the Michaelis-Menten kinetics (Km and Vmax) or the dose-response inhibition model (IC50 values).

[1] = test system: triple negative MDA-MB-231 breast carcinoma spheroids; assay: 3D-spheroid invasion; assay type: cell-based, human; conditions: through reversion of EMT
Source text: A 3D-spheroid culture formulation was developed that allows for the culture of single uniform spheroids with variety of cell types in 96-well plates that can be used with a variety of epithelial-mesenchymal transition (EMT) biomarker reporters (see, U.S. Patent Publication No. 2011/0143960 A1; Li Q, Chen C, Kapadia A, Zhou Q, Harper M K, et al. (2011), 3D Models of epithelial-mesenchymal transition in breast cancer metastasis: high-throughput screening assay development, validation, and pilot screen. J Biomol Screen 16: 141-154). The 3D-spheroid based assays with neo (control) and derivatives were used to test their ability to revert EMT or induce cytotoxicity against human carcinomas resistant to clinically used TopoIIα drugs, including: MDA-MB-231, MCF7/AdrVP breast cancer, and SW480, Colo201, and DLD-1 (APC mutant) colon cancer cells. This 3D-model utilizes a luciferase reporter of vimentin, a key mesenchymal biomarker expressed in these cells. Vimentin expression is measured using a live spheroid luciferin substrate (caged luciferin) followed by a multiplex assay measuring spheroid viability. […]
Active compounds are then tested for their ability to inhibit spheroid invasion, as follows: Spheroid invasion is measured using 15 spheroids per sample group. […] Invading cells will be measured using an OPERETTA™ high content imaging system.

[2] = test system: human colon tumor (HCT-116); conditions: compared with 9-aminocamptothecin; cited from earlier work
xenograft tumors = conditions: in mice; compared with etoposide; cited from earlier work
DNA = conditions: below 100 μM concentrations; cited from earlier work
Pgp = Pgp (Homo sapiens, UniProt P08183); conditions: cited from earlier work
Sequence of Pgp (P08183 whole entry): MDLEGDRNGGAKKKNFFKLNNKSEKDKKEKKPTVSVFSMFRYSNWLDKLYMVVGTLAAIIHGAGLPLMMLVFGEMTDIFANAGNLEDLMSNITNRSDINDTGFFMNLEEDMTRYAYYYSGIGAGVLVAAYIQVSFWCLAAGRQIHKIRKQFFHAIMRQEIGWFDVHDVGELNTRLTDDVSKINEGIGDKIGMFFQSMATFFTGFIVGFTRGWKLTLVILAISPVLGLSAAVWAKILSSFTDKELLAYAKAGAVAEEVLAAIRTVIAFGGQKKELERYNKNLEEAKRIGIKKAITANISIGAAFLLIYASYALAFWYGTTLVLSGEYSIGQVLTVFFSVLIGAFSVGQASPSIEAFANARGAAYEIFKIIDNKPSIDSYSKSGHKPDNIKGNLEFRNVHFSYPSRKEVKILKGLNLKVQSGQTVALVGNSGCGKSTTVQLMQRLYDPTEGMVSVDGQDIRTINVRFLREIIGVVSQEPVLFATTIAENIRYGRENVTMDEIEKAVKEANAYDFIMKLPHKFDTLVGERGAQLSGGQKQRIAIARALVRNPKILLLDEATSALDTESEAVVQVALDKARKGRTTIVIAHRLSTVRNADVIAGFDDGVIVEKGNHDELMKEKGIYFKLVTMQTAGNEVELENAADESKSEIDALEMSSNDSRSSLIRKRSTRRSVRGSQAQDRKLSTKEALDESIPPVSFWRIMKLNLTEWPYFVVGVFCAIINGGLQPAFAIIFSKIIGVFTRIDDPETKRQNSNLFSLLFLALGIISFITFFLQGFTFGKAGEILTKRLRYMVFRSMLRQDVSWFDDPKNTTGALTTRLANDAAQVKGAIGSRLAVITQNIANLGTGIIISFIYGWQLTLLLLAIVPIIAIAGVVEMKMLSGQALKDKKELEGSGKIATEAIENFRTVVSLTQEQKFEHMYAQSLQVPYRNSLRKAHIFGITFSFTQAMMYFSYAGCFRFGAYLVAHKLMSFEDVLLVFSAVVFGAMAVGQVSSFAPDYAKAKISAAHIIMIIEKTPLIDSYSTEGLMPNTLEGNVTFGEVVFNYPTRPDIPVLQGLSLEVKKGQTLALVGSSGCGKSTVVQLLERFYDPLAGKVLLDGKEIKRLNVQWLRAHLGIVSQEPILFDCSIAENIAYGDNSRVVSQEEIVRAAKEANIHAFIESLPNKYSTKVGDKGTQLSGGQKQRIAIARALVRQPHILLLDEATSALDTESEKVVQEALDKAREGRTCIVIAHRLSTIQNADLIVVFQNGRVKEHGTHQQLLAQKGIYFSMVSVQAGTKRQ

Sequence of TopoIIα (P11388 whole entry): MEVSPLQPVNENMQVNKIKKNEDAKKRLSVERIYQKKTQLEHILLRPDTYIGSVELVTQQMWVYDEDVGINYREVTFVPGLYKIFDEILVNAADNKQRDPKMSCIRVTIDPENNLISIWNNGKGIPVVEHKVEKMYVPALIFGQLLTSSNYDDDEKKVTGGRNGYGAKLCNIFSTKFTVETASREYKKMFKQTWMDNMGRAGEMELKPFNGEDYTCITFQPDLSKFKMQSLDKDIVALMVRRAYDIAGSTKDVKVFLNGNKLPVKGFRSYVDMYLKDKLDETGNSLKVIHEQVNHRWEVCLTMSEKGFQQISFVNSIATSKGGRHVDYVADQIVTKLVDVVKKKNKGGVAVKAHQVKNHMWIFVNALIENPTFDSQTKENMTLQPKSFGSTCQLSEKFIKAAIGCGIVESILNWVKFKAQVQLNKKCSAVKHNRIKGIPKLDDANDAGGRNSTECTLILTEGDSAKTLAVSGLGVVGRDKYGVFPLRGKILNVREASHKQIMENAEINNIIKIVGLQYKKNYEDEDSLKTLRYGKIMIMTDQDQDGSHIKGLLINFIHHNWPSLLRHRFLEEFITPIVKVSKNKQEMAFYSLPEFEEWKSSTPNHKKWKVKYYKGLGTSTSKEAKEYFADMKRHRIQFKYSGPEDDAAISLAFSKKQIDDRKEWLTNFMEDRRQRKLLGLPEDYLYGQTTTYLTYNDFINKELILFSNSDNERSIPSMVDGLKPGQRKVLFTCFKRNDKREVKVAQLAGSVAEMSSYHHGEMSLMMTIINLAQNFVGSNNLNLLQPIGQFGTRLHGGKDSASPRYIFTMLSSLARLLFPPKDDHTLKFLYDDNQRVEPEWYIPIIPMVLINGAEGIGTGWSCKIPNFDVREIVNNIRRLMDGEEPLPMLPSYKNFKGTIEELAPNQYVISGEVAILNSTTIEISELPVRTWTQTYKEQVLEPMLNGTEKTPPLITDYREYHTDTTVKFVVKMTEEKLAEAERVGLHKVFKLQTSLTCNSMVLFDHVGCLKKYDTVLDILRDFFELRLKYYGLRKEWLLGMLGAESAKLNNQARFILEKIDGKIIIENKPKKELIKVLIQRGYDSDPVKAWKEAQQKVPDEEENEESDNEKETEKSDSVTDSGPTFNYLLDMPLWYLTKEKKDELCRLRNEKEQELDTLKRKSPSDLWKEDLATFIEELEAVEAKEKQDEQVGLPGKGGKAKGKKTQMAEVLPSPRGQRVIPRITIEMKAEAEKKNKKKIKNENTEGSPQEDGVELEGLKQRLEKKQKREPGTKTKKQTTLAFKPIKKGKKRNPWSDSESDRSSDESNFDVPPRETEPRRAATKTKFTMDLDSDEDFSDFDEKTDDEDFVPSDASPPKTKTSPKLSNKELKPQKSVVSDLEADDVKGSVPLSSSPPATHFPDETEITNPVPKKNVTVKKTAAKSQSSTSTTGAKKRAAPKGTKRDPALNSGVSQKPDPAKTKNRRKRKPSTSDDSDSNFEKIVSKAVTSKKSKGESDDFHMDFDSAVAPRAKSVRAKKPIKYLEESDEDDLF

Ki (TopoIIα; corresponding to the IC50, calculated using the Cheng-Prusoff equation, read-out: Ki, inhibition of TopoIIα ATPase function): 800 ± 300 nM
increase of the apparent Km of TopoIIα for ATP (TopoIIα; over a concentration range from 0-10 μM): approximately 2 fold
IC50 (TopoIIα; read-out: IC50, inhibition of TopoIIα ATPase function): 2000 nM
Compound: Cn1ccc2c(c1=O)C(=O)c1nccc3c1c-2nc1ccccc13 [neo, Neoamphimedine]
inhibition of invasive potential of spheroids [1]: significantly inhibits the invasive potential
efficacy in HCT-116 xenografts [2]: as efficacious as
inhibition of the growth of xenograft tumors (xenograft tumors): as effective as etoposide
stabilization of the cleaved complex, DNA strand breaks or intercalation of DNA (DNA): without stabilizing the cleaved complex, or causing significant DNA strand breaks or intercalation of DNA
substrate for Pgp-dependent MDR (Pgp): not a substrate

— patent US20140309257A1, “TOPOISOMERASE INHIBITORS AND METHODS OF MAKING AND USE AS THERAPEUTIC AGENTS” (THE REGENTS OF THE UNIVERSITY OF COLORADO, a body corporate, priority 2011, published 2014)
